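Cultured in 96-well plates, cells were exposed to test compound for 48 hours across five concentrations. GI50 marks 50% less growth. TGI is the concentration that stops growth completely.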
Key:
Assay in all cases: inhibition of tumour cell growth, NCI panel, 48 h
KM12 colon = system: KM12 colon
OVCAR-5 ovarian = system: OVCAR-5 ovarian
NCI-H226 lung = system: NCI-H226 lung
CAKI-1 renal = system: CAKI-1 renal
HOP-62 NSCLC = system: HOP-62 NSCLC
HCT-116 colon = system: HCT-116 colon
BT-549 breast = system: BT-549 breast
SF-539 CNS = system: SF-539 CNS
OVCAR-4 ovarian = system: OVCAR-4 ovarian
SN12C renal = system: SN12C renal

Compound | GI50 (KM12 colon) [µM] | TGI (KM12 colon) [µM] | GI50 (OVCAR-5 ovarian) [µM] | TGI (OVCAR-5 ovarian) [µM] | GI50 (NCI-H226 lung) [µM] | TGI (NCI-H226 lung) [µM] | GI50 (CAKI-1 renal) [µM] | TGI (CAKI-1 renal) [µM] | GI50 (HOP-62 NSCLC) [µM] | TGI (HOP-62 NSCLC) [µM] | GI50 (HCT-116 colon) [µM] | TGI (HCT-116 colon) [µM] | GI50 (BT-549 breast) [µM] | TGI (BT-549 breast) [µM] | GI50 (SF-539 CNS) [µM] | TGI (SF-539 CNS) [µM] | GI50 (OVCAR-4 ovarian) [µM] | TGI (OVCAR-4 ovarian) [µM] | GI50 (SN12C renal) [µM] | TGI (SN12C renal) [µM]
COc1ccc2nc3cc(Cl)ccc3c(NCCCNCCC(C)O)c2c1 (configuration not stated) | 0.408 | 1.98 | 0.331 | 2.46 | 0.943 | 3.11 | 0.735 | 3.43 | 0.389 | 2.35 | 0.0569 | 1.54 | 1.73 | 4.13 | 0.345 | 1.49 | 0.282 | 1.04 |  | 
COc1ccc(-n2c3c(c4c(CN5CCOCC5)c(O)ccc42)CCc2ccccc2C3=O)cc1 | > 100 | > 100 | 34.8 | > 100 | 54.5 | > 100 | 37.8 | > 100 | > 100 | > 100 | > 100 | > 100 | 24.2 | > 100 | 61 | > 100 |  |  | 43.3 | > 100
O=C1c2c(n(Cc3ccccc3)c(=O)n2Cc2ccccc2)C(=O)N1Cc1ccccc1 |  | > 100 |  | > 100 |  | > 100 |  | > 100 |  | > 100 |  | > 100 |  |  |  | > 100 |  | > 100 |  | > 100
O=c1cc(-c2ccccc2)[nH]n1-c1nc2ccccc2[nH]1 | 5.28 | > 100 | 12.5 | > 100 | 9.49 | > 100 | 3.42 | > 100 | 4.96 | > 100 | 3.12 | > 100 | 7.03 | > 100 | 3.94 | 27.1 |  |  | 6.84 | > 100
CN1CC(C(=O)C2C(=O)c3ccccc3C2=O)C(=O)C(=O)C(C(=O)C2C(=O)c3ccccc3C2=O)C1 (configuration not stated) |  | > 100 |  | > 100 |  |  |  | > 100 |  | > 10 |  | > 100 |  |  |  | > 100 |  |  |  | > 100
CC#CC1/C(=C\C(=O)OC)CCCC1O (configuration not stated) |  | > 100 |  | > 100 |  | > 100 |  | > 100 |  | > 100 |  | > 100 |  |  |  | > 100 |  | > 100 |  | > 100
CCN(CCCl)CCCNc1c2ccccc2nc2ccc(OC)cc12 | 268 |  | 286 |  | 580 |  | 133 |  | 200 |  |  | 1.16 |  |  | 421 |  | 360 |  | 274 | 
O=C(CC(=O)N1N=C(N2c3ccccc3Sc3ccccc32)CC1c1ccccc1)Nc1ccc(Cl)cc1 (configuration not stated) |  | > 100 |  | > 100 |  |  |  | > 100 |  | > 100 |  | > 100 |  |  |  | > 100 |  | > 100 |  | > 100
CCOC(=O)C1SC(=Nc2ccc(Cl)c(Cl)c2)N=C1C (configuration not stated) |  | > 100 |  | > 100 |  | 67.7 |  | > 100 |  | > 100 |  |  |  |  |  | > 100 |  | 62 |  | 53
CC1=CCC23C(C1)OC(Br)(C=CC2(C)O)C3(C)C (configuration not stated) |  | > 100 |  | > 100 |  | > 100 |  | > 100 |  |  |  | > 100 |  |  |  | > 100 |  | > 100 |  | > 100

From PubChem BioAssay (NCI)
